What all share (experiment): competitive isoTOP-ABPP
Common to all, as to assay type: binding
Holding throughout (settings): 50 uM_231_sol_in vitro

Experiment [1] addresses T1, FAM136A Protein FAM136A (Homo sapiens, UniProt Q96C01).
T1 construct: isoTOP-ABPP experiments performed in cell lysates (in vitro); endogenous in cells; host or cells: soluble proteome of human cancer cell lines (MDA-MB-231; Ramos and Jurkat also prepared)
In outline: (§1)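 Here, isoTOP-ABPP measures loss of STP-alkyne labeling at individual lysines after fragment exposure in lysate. Activated esters are dosed at 50 μM, guanidinylating agents at 100 μM; the probe follows at 0.1 mM for 1 h. R ≥4 marks a liganded lysine.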

Experiment [2] addresses T2, TTR Transthyretin (Homo sapiens, UniProt P02766).
T2 construct: isoTOP-ABPP experiments performed in cell lysates (in vitro); endogenous in cells; host or cells: MDA-MB-231 soluble lysate
In outline:
as §1

Experiment [3] has as its target T3, TPMT Thiopurine S-methyltransferase (Homo sapiens, UniProt P51580).
T3 construct: isoTOP-ABPP experiments performed in cell lysates (in vitro); endogenous in cells; host or cells: soluble proteome of human cancer cell lines (MDA-MB-231; Ramos and Jurkat also prepared)
T3 sequence (P51580 1-245): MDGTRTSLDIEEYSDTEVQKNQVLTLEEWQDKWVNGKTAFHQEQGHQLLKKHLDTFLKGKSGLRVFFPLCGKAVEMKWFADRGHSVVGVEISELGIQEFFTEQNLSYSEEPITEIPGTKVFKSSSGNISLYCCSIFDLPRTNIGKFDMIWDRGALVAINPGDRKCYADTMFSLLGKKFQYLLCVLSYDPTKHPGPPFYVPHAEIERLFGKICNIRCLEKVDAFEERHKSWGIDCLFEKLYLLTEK
The protocol: (§2) In vitro covalent fragment treatment for isoTOP-ABPP. All compounds were made up as solutions in DMSO (100×) and were used at a final concentration of 50 μM for activated esters and 100 μM for guanidinylating agents. For each profiling sample, 0.5 ml of lysate was treated with 5 μl of the 100× compound stock solution or 5 μl of DMSO. Samples were treated with activated esters for
(§3) STP-alkyne labeling and click chemistry. For concentration-dependent reactivity measurements by isoTOP-ABPP, 0.5 ml proteome aliquots were treated at ambient temperature with 1 mM STP-alkyne 1 (5 μl of 100 mM stock in DMSO) and 0.1 mM STP alkyne 1 (5 μl of 10 mM stock in DMSO), respectively. For competitive isoTOP-ABPP, after in vitro fragment treatment (detailed above), the samples were labeled for 1 h at ambient temperature with 0.1 mM STP-alkyne 1 (5 μl of 10 mM stock in DMSO). Samples were conjugated by copper-mediated azide-alkyne cycloaddition (CuAAC) to either the light (1 mM STP-alkyne or fragment treated) or heavy (0.1 mM STP-alkyne or DMSO treated) TEV tags (10 μl of 5 mM stocks in DMSO, final concentration=100 μM) using tris(2-carboxyethyl)phosphine hydrochloride
(§4) R value calculation and processing. The ratios of light and heavy MS1 peaks for each unique peptide were quantified with a CIMAGE software using default parameters (3 MS1 acquisitions per peak and signal to noise threshold set to 2.5). For reactivity measurements by isoTOP-ABPP, the R value was calculated from the ratio of MS1 peak areas, comparing the 1 mM STP alkyne sample (light TEV tag) with the 0.1 mM STP alkyne sample (heavy TEV tag). For competitive isoTOP-ABPP, the R value was calculated from the ratio of MS1 peak areas, comparing the DMSO treated sample (heavy TEV tag) with the compound treated sample (light TEV tag). […] Ratios for unique peptide entries are calculated for each experiment; overlapping peptides with the same modified lysine (for example, different charge states, MudPIT chromatographic steps or tryptic termini) are grouped together and the median ratio is reported as the final ratio (R). The peptide ratios reported by CIMAGE were further filtered to ensure the removal or correction of low-quality ratios in each individual data set. The quality filters applied were the following: removal of half tryptic peptides; for ratios with high standard deviations from the median (90% of the median or above) the lowest ratio was taken instead of the median; removal of peptides with R=20 and only a single MS2 event triggered during the elution of the parent ion; manual annotation of all the peptides with ratios of 20, removing any peptides with low quality elution profiles that remained after the previous curation steps (only done for competitive isoTOP-ABPP).
(§5) Cross-data processing for fragment screening. For compound treated samples, biological replicates of the same condition were averaged, if the standard deviation was below 60% of the mean; otherwise, for lysines with at least one R value <4 for a particular compound, the lowest value of the ratio set was taken. For lysines, where all R values for a particular compound were ≥4, the average was reported. For peptides containing several possible modified lysines, the lysine with the highest number of quantification events was used for analysis and the remaining, redundant peptides were reported as alternative modification sites. Peptides included in the aggregate dataset (those used for further bioinformatics and statistical analyses) were required to have been quantified in 2 experiments for competitive isoTOP-ABPP. Lysines were categorized as liganded, if they had at least one ratio R≥4 (hit fragments). For liganded lysines with R=20 for all liganding events, lysines were required to have been quantified with R=20 in two separate experiments and were further required to have been quantified with R<20 in one additional experiment.

Experiment [4] has as its target T4, CPOX Coproporphyrinogen-III oxidase, mitochondrial (Homo sapiens, UniProt P36551).
T4 construct: isoTOP-ABPP experiments performed in cell lysates (in vitro); endogenous in cells; host or cells: soluble proteome of human cancer cell lines (MDA-MB-231; Ramos and Jurkat also prepared)
T4 sequence (P36551 111-454): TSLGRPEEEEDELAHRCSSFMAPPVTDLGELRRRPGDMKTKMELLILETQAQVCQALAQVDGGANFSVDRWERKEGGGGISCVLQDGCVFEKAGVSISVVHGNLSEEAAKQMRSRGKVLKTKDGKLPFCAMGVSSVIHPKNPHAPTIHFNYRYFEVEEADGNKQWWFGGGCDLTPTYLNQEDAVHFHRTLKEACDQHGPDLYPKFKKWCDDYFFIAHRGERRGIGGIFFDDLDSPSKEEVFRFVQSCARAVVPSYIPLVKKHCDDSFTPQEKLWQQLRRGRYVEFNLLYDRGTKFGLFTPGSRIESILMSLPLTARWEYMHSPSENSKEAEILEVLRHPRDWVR
The protocol:
as §2, §3, §4, §5

The structures appear in SMILES notation.

T1 sequence (Q96C01 whole entry): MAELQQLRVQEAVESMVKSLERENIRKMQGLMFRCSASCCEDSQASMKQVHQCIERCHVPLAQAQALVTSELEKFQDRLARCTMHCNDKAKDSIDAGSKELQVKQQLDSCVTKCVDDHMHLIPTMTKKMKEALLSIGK

On to `O=C(Oc1c(F)c(F)c(C(F)(F)F)c(F)c1F)c1cc(C(F)(F)F)cc(C(F)(F)F)c1` [fragment 47, 2,3,5,6-Tetrafluoro-4-(trifluoromethyl)phenyl 3,5-bis(trifluoromethyl)benzoate], for which the “isoTOP-ABPP ratio, lysine Q96C01_K99” value in experiment [1] amounted to 0.7. The “isoTOP-ABPP ratio, lysine P02766_K35” value in experiment [2] is 1.6. Moreover, the “isoTOP-ABPP ratio, lysine P51580_K32” value in experiment [3] came out at 9.5. Also, the “isoTOP-ABPP ratio, lysine P36551_K404” value in experiment [4] came out at 1.5.

For the origin of these results see patent publication US20210255193A1, “LYSINE REACTIVE PROBES AND USES THEREOF” (The Scripps Research Institute, priority 2017, published 2021).
